# According to ChEMBL document CHEMBL1134130, “Carbonic anhydrase inhibitors: 4-sulfamoyl-benzenecarboxamides and 4-chloro-3-sulfamoyl-benzenecarboxamides with strong topical antiglaucoma properties” (Bioorg Med Chem Lett, 2001):
# Assays:
# [1] = target: Carbonic anhydrase 2 (Homo sapiens, UniProt P00918)
# Description: Binding affinity against human carbonic anhydrase II (hCA -II)
# [2] = target: T1, Carbonic anhydrase 4 (Bos taurus, UniProt Q95323)
# T1 sequence (Q95323 whole entry): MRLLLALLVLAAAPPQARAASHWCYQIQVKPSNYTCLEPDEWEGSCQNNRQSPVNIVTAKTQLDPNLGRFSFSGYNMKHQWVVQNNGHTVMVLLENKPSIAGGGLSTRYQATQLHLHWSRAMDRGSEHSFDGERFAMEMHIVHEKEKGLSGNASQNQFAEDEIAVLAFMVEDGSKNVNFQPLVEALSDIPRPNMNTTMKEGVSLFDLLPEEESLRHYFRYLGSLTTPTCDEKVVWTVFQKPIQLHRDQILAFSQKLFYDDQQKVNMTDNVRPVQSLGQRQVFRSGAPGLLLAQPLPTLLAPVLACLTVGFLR
# Description: Compound was evaluated for binding affinity against bovine carbonic anhydrase IV (bCA IV)
# [3] = target: Carbonic anhydrase 1 (Homo sapiens, UniProt P00915)
# Chain of Carbonic anhydrase 1 (P00915 whole entry): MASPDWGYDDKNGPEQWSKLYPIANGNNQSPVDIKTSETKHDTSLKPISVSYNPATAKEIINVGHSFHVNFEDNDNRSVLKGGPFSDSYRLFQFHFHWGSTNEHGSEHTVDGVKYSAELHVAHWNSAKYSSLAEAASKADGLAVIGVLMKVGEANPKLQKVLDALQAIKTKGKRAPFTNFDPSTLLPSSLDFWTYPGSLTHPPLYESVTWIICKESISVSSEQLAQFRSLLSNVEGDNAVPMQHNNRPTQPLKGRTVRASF
# Description: Binding affinity against human carbonic anhydrase I (hCA I)
SMILES,Ki [1],Ki [2],Ki [3]
NS(=O)(=O)c1cc(C(=O)N[C@@H](CCC(=O)O)C(=O)O)ccc1Cl,340 nM,400 nM,305 nM
NS(=O)(=O)c1cc(C(=O)N[C@@H](Cc2c[nH]cn2)C(=O)O)ccc1Cl,210 nM,350 nM,103 nM
CC(C)C[C@H](NC(=O)c1ccc(Cl)c(S(N)(=O)=O)c1)C(=O)O,305 nM,330 nM,125 nM
NC(=O)CC[C@H](NC(=O)c1ccc(Cl)c(S(N)(=O)=O)c1)C(=O)O,305 nM,410 nM,250 nM
CC[C@H](C)[C@H](NC(=O)c1ccc(Cl)c(S(N)(=O)=O)c1)C(=O)O,280 nM,360 nM,150 nM
NS(=O)(=O)c1cc(C(=O)N[C@H](C(=O)O)c2ccccc2)ccc1Cl,160 nM,240 nM,105 nM
NS(=O)(=O)c1cc(C(=O)NCC(=O)O)ccc1Cl,450 nM,600 nM,210 nM
NS(=O)(=O)c1cc(C(=O)NCC(=O)NCC(=O)O)ccc1Cl,85 nM,170 nM,69 nM
C[C@H](NC(=O)c1ccc(S(N)(=O)=O)cc1)C(=O)O,79 nM,75 nM,425 nM
C[C@H](NC(=O)c1ccc(Cl)c(S(N)(=O)=O)c1)C(=O)O,420 nM,475 nM,175 nM
NS(=O)(=O)c1cc(C(=O)N[C@@H](Cc2ccccc2)C(=O)O)ccc1Cl,250 nM,340 nM,135 nM
CSCC[C@H](NC(=O)c1ccc(Cl)c(S(N)(=O)=O)c1)C(=O)O,410 nM,650 nM,240 nM
NS(=O)(=O)c1ccc(C(=O)N[C@@H](CO)C(=O)O)cc1,120 nM,325 nM,440 nM
NS(=O)(=O)c1cc(C(=O)N[C@@H](CO)C(=O)O)ccc1Cl,290 nM,395 nM,170 nM
NS(=O)(=O)c1cc(C(=O)NC(Cc2ccc(O)c(O)c2)C(=O)O)ccc1Cl (stereo not given),240 nM,330 nM,100 nM
NS(=O)(=O)c1cc(C(=O)NCCCC(=O)O)ccc1Cl,400 nM,540 nM,200 nM
NS(=O)(=O)c1ccc(C(=O)N[C@@H](Cc2c[nH]cn2)C(=O)NCC(=O)O)cc1,10 nM,19 nM,380 nM
C[C@@H](O)[C@H](NC(=O)c1ccc(Cl)c(S(N)(=O)=O)c1)C(=O)O,520 nM,735 nM,320 nM
NS(=O)(=O)c1cc(C(=O)N[C@@H](CC(=O)O)C(=O)O)ccc1Cl,300 nM,355 nM,285 nM
NS(=O)(=O)c1cc(C(=O)NCCC(=O)O)ccc1Cl,450 nM,610 nM,205 nM
CC(C)[C@H](NC(=O)c1ccc(Cl)c(S(N)(=O)=O)c1)C(=O)O,330 nM,360 nM,130 nM
NS(=O)(=O)c1ccc(C(=O)N[C@@H](CCC(=O)O)C(=O)O)cc1,74 nM,160 nM,430 nM
NS(=O)(=O)c1cc(C(=O)N[C@@H](Cc2ccc(O)cc2)C(=O)O)ccc1Cl,250 nM,325 nM,115 nM
NS(=O)(=O)c1ccc(C(=O)N[C@@H](CS)C(=O)O)cc1,110 nM,230 nM,450 nM
NS(=O)(=O)c1ccc(C(=O)NCCC(=O)N[C@@H](Cc2c[nH]cn2)C(=O)O)cc1,16 nM,21 nM,270 nM
C[C@@H](O)[C@H](NC(=O)c1ccc(S(N)(=O)=O)cc1)C(=O)O,115 nM,350 nM,475 nM

# Continued by falling Ki [1], values first:
Ki [1],Ki [2],Ki [3],SMILES
74 nM,150 nM,420 nM,CC(C)[C@H](NC(=O)c1ccc(S(N)(=O)=O)cc1)C(=O)O
73 nM,150 nM,425 nM,NS(=O)(=O)c1ccc(C(=O)N[C@@H](CC(=O)O)C(=O)O)cc1
73 nM,120 nM,415 nM,NS(=O)(=O)c1ccc(C(=O)NCCCC(=O)O)cc1
72 nM,155 nM,410 nM,NC(=O)C[C@H](NC(=O)c1ccc(S(N)(=O)=O)cc1)C(=O)O
66 nM,150 nM,400 nM,CSCC[C@H](NC(=O)c1ccc(S(N)(=O)=O)cc1)C(=O)O
62 nM,98 nM,37 nM,NS(=O)(=O)c1cc(C(=O)N[C@H](C(=O)O)C(O)c2ccccc2)ccc1Cl (stereo not given in full)
53 nM,90 nM,405 nM,CC(C)C[C@H](NC(=O)c1ccc(S(N)(=O)=O)cc1)C(=O)O
52 nM,130 nM,560 nM,NS(=O)(=O)c1ccc(C(=O)N[C@@H](Cc2ccccc2)C(=O)O)cc1
51 nM,80 nM,39 nM,CC(C)C[C@H](NC(=O)c1ccc(Cl)c(S(N)(=O)=O)c1)C(=O)NCC(=O)O
50 nM,73 nM,41 nM,NS(=O)(=O)c1cc(C(=O)N[C@@H](Cc2c[nH]cn2)C(=O)NCC(=O)O)ccc1Cl
48 nM,86 nM,350 nM,"CCC(C)[C@H](NC(=O)c1ccc(S(N)(=O)=O)cc1)C(=O)O (single isomer, unassigned)"
45 nM,120 nM,535 nM,NS(=O)(=O)c1ccc(C(=O)N[C@@H](Cc2ccc(O)cc2)C(=O)O)cc1
44 nM,72 nM,36 nM,C[C@H](NC(=O)c1ccc(Cl)c(S(N)(=O)=O)c1)C(=O)N[C@@H](Cc1ccccc1)C(=O)O
43 nM,105 nM,520 nM,NS(=O)(=O)c1ccc(C(=O)NC(Cc2ccc(O)c(O)c2)C(=O)O)cc1 (stereo not given)
42 nM,50 nM,350 nM,NS(=O)(=O)c1ccc(C(=O)NCC(=O)NCC(=O)O)cc1
40 nM,125 nM,270 nM,NS(=O)(=O)c1ccc(C(=O)N[C@@H](Cc2cnc[nH]2)C(=O)O)cc1
38 nM,45 nM,27 nM,NS(=O)(=O)c1cc(C(=O)N[C@@H](Cc2c[nH]cn2)C(=O)N[C@@H](Cc2ccccc2)C(=O)O)ccc1Cl
36 nM,50 nM,30 nM,NS(=O)(=O)c1cc(C(=O)NCCC(=O)N[C@@H](Cc2cnc[nH]2)C(=O)O)ccc1Cl
28 nM,61 nM,24 nM,NS(=O)(=O)c1ccc(CNC(=O)c2ccc(Cl)c(S(N)(=O)=O)c2)cc1
26 nM,63 nM,21 nM,NS(=O)(=O)c1ccc(CCNC(=O)c2ccc(Cl)c(S(N)(=O)=O)c2)cc1
21 nM,62 nM,54 nM,NS(=O)(=O)c1ccc(C(=O)N[C@H](C(=O)O)C(O)c2ccccc2)cc1 (stereo not given in full)
12 nM,24 nM,320 nM,C[C@H](NC(=O)c1ccc(S(N)(=O)=O)cc1)C(=O)N[C@@H](Cc1ccccc1)C(=O)O
7 nM,16 nM,40 nM,NS(=O)(=O)c1ccc(CNC(=O)c2ccc(S(N)(=O)=O)cc2)cc1
3 nM,15 nM,35 nM,NS(=O)(=O)c1ccc(C(=O)Nc2nnc(S(N)(=O)=O)s2)cc1
